Columns and labels:
[1] = ABTS free radical scavenging rate; assay type: biochemical; conditions: 5 min
Description: The ABTS free radical scavenging rate of EPSF-starch was measured as follows: 100 mg of ABTS and 34.4 mg of potassium persulfate were dissolved in 25 mL of distilled water. They were shaken well, and stored at ambient temperature in dark for 12-16 hours.
EPSFs in Example 1 and EGCG in Comparative Example 1 were dispersed uniformly in methanol, obtaining dispersions with mass concentrations of 2 μg/mL, 4 μg/mL, 6 μg/mL, 8 μg/mL, 10 μg/mL and 12 μg/mL. The corn starch and EPSF-starch in Example 1, as well as the EGCG-starch in Comparative Example 1, were uniformly dispersed in methanol obtaining dispersions with mass concentrations of 0.156 mg/mL, 0.313 mg/mL, 0.625 mg/mL, 1.25 mg/mL, and 2.50 mg/mL. 1.0 mL of the above sample solutions and 3.0 mL of the ABTS free radical working solution were added to the test tube in sequence, and they were shaken well, and reacted at ambient temperature in dark for 5 minutes. The absorbance A1 thereof was measured at 734 nm. The sample solutions were replaced with methanol and the absorbance A0 thereof was measured according to the above method. EGCG, starch, and EGCG-starch functioned as control groups, and the ABTS free radical scavenging rates thereof were determined according to the above method. Experiment of each group was repeated three times, and the ABTS free radical scavenging rate of each sample was calculated according to Equation 2.
[formula] • where A0 represents the absorbance of a mixture of the sample dispersion and methanol; and A1 represents the absorbance of the sample dispersion and ABTS radical solution.

[2] = DPPH free radical scavenging rate; assay type: biochemical; conditions: 30 min
Description: The scavenging rate of EPSF-starch on DPPH free radicals was measured as follows: The N-ethyl-2-pyrrolidinone-substituted flavan-3-ol (EPSF) in Example 1 and EGCG in Comparative Example 1 were uniformly dispersed in methanol separately, obtaining dispersions with mass concentrations of 2 μg/mL, 4 μg/mL, 6 μg/mL, 8 μg/mL, 10 μg/mL and 12 μg/mL. The corn starch and EPSF-starch in Example 1, as well as the EGCG-starch in Comparative Example 1, were uniformly dispersed in methanol to obtain dispersions with mass concentrations of 0.156 mg/mL, 0.313 mg/mL, 0.625 mg/mL, 1.25 mg/mL, and 2.50 mg/mL. 2 mL of the above sample dispersions were pipetted in sequence into test tubes, and 2.0 mL of a DPPH solution (0.2 mmol/L, which was prepared with methanol) was added thereto, respectively. The resulting mixture was shaken well, and reacted at ambient temperature in dark for 30 minutes. The absorbance A1 thereof was then measured at 517 nm. Meanwhile, DPPH solution was replaced with an equal amount of methanol solution, and the absorbance A2 thereof was measured according to the above method. The absorbance A0 of a mixture of 2.0 mL of methanol and 2.0 mL of DPPH solution was measured. Experiments of each group were repeated three times, and the DPPH free radical scavenging rate of EPSF-starch was calculated according to Equation 1.
[formula] • where A0 represents the absorbance of the mixture of methanol and DPPH solution; A1 represents the absorbance of a mixture of the sample dispersion and DPPH free radical solution; and A2 represents the absorbance of a mixture of the sample dispersion and methanol.

Substance: epigallocatechin-3-gallate [EGCG]
- ABTS free radical scavenging rate ([1]; sample concentration 2 μg/mL in methanol): 51.91 ± 2.1%
- ABTS free radical scavenging rate ([1]; sample concentration 4 μg/mL in methanol): 78.8 ± 1.73%
- ABTS free radical scavenging rate ([1]; sample concentration 6 μg/mL in methanol): 91.49 ± 1.23%
- ABTS free radical scavenging rate ([1]; sample concentration 8 μg/mL in methanol): 94.38 ± 2.07%
- ABTS free radical scavenging rate ([1]; sample concentration 10 μg/mL in methanol): 95.17 ± 1.8%
- ABTS free radical scavenging rate ([1]; sample concentration 12 μg/mL in methanol): 95.24 ± 1.69%
- DPPH free radical scavenging rate ([2]; sample concentration 2 μg/ml in methanol): 21.57 ± 0.04%
- DPPH free radical scavenging rate ([2]; sample concentration 4 μg/ml in methanol): 50.98 ± 0.25%
- DPPH free radical scavenging rate ([2]; sample concentration 6 μg/ml in methanol): 67.85 ± 4%
- DPPH free radical scavenging rate ([2]; sample concentration 8 μg/ml in methanol): 88.44 ± 0.27%
- DPPH free radical scavenging rate ([2]; sample concentration 10 μg/ml in methanol): 85.67 ± 2.01%
- DPPH free radical scavenging rate ([2]; sample concentration 12 μg/ml in methanol): 87.39 ± 2.62%
- DPPH free radical scavenging rate ([2]; sample concentration 2.5 mg/ml in methanol): 90%
